Values quoted from earlier work as cited in US20260174880A1, “ELECTROPHILIC REACTIVE LINKERS FOR LABELING OF POLYPEPTIDES AND METHODS OF USE THEREOF” (The Brigham and Women's Hospital, Inc., priority 2023, published 2026).
Where two headings read alike, the source gives them in different places.

Key:
NF- B Pathway = settings: at 5 μM
Recombinant PKC = target: T1, Recombinant PKC (Homo sapiens, UniProt Q05513); settings: for % … 62.5 μM (cell…): at 62.5 μM
T1 sequence (Q05513 1-592): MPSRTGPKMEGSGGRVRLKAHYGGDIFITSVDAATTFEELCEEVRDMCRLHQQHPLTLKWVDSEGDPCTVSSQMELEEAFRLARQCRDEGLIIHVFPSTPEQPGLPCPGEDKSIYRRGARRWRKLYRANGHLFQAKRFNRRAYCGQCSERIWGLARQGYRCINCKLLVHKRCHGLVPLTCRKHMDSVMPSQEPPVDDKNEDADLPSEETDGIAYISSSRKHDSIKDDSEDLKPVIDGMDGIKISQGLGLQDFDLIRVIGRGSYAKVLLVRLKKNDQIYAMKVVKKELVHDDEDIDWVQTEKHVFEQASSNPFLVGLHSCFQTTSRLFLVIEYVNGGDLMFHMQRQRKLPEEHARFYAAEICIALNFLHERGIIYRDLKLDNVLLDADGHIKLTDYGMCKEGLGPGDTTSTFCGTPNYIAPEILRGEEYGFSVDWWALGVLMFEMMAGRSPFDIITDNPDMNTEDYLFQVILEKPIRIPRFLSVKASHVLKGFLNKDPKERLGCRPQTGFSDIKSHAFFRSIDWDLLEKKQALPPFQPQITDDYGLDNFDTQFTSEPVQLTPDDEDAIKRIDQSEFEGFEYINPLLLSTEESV

AKT1 = AKT1 (Homo sapiens, UniProt P31749); settings: the 24th table, the 25th table
PDK1 [1] = target: T2, PDK1 (Homo sapiens, UniProt O15530); settings: the 35th table; read-out: AC…
T2 sequence (O15530 1-556): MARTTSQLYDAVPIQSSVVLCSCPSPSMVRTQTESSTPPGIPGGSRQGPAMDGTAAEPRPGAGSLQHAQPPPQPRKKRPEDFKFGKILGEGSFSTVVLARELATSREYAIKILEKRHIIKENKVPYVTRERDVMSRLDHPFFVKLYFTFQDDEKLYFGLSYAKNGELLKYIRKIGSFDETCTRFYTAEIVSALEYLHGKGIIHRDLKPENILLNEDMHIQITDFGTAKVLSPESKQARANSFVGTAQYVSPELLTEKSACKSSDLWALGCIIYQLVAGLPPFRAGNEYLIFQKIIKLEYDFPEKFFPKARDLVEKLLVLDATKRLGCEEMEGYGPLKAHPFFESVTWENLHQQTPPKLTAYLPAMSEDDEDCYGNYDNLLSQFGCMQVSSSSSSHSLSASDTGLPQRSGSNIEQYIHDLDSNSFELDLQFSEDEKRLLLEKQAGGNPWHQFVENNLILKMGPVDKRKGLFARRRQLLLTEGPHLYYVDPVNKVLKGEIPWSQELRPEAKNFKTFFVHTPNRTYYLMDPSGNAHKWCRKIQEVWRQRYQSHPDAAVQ

PDK1 [2] = target: T2, PDK1; settings: for T…: the 35th table c7; for …G: the 35th table c8
Akt = settings: the 26th table
[3] = system: NF-κB dependent transcription
MEK1 = MEK1 (Homo sapiens, UniProt Q02750)
MEK2 = MEK2 (Homo sapiens, UniProt P36507)
other kinases = settings: at 1000 nM EAI045
[4] = system: Molt-4 (T cell acute lymphoblastic leukemia) xenografts; settings: SCID mice
PDK1 [5] = target: T2, PDK1
MERS-COV = settings: in vitro
[6] = not given; remark: listed apart in the source
Aurora A = target: T3, Aurora A (Homo sapiens, UniProt O14965); settings: the 30th table
T3 sequence (O14965 1-403): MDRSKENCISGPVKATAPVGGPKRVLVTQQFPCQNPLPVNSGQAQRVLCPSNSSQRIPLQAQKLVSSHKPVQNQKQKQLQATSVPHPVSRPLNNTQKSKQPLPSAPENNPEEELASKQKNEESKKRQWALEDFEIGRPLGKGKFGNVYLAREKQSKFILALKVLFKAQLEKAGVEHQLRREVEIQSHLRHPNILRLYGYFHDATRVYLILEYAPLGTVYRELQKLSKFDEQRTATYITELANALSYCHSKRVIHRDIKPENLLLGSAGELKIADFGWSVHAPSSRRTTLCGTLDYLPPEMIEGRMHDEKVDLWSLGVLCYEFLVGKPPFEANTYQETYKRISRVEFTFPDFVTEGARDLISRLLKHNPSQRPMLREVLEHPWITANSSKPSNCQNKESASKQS

[7] = system: breast carcinoma, prostate carcinoma, colon carcinoma and pancreatic carcinoma xenografts; settings: in vivo
p38α MAPK = p38α MAPK (Homo sapiens, UniProt Q16539)
Sequence of p38α MAPK (Q16539 whole entry): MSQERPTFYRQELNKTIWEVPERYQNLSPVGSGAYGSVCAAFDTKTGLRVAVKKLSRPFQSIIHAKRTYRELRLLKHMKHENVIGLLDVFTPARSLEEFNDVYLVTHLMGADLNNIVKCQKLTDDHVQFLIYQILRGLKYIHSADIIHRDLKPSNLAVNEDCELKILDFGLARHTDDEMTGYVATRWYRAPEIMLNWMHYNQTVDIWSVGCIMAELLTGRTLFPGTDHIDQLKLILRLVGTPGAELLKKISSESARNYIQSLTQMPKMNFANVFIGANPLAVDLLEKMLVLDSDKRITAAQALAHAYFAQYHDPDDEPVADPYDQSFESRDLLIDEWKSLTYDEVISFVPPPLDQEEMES

Sequence of AKT1 (P31749 whole entry): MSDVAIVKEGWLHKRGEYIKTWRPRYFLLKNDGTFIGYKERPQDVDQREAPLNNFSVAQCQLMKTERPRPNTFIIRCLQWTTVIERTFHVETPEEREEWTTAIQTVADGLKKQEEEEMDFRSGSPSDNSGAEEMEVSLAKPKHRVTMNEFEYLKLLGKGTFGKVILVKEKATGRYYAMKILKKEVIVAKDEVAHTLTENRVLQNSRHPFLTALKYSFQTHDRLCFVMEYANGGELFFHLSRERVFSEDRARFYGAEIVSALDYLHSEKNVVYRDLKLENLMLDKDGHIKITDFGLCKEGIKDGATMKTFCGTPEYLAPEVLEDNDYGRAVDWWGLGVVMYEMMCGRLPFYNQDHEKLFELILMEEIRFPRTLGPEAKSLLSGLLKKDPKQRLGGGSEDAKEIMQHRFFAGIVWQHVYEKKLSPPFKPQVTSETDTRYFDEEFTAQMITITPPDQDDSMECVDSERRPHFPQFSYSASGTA
Sequence of MEK1 (Q02750 whole entry): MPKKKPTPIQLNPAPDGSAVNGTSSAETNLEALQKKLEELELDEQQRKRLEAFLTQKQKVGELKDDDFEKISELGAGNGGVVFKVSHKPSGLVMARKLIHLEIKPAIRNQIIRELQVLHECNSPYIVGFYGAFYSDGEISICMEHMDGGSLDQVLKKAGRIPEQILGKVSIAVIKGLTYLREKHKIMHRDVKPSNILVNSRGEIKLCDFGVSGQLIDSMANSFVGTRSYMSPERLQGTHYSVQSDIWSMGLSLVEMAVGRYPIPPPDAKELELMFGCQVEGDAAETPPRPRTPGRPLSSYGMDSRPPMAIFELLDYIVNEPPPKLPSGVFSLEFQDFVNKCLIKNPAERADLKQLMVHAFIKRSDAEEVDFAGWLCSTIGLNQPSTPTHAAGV
Sequence of MEK2 (P36507 whole entry): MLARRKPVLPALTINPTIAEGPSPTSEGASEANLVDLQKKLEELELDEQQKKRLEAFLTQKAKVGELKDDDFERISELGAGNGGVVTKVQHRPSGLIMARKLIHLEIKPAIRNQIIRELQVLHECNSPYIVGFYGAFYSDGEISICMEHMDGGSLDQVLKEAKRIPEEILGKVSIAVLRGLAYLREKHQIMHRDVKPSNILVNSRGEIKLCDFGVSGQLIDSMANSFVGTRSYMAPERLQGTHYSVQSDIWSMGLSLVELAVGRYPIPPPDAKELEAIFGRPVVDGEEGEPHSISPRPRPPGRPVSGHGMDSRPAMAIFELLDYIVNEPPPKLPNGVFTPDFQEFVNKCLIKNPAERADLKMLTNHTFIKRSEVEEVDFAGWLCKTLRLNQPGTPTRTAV

Molecule: CC(C)(C)C1=NN(c2ccc(Cl)cc2)C(c2ccc(O)cc2)C1 (centres unmarked) [1a]
- % … 5 μM (NF…, U… cells) (NF- B Pathway): 75.1%

Molecule: CC(C)(C)C1=NN(c2ccc(Br)cc2)C(c2ccc(O)cc2)C1 (centres unmarked) [1c]
- % … 62.5 μM (cell…) (Recombinant PKC): 93.2%

Molecule: CC(C)(C)C1=NN(c2ccc(C(F)(F)F)cc2)C(c2ccc(O)cc2)C1 (centres unmarked) [1d]
- % … 62.5 μM (cell…) (Recombinant PKC): 94.2%

Molecule: Cc1ccc(N2N=C(C(C)(C)C)CC2c2ccc(O)cc2)cc1 (centres unmarked) [1e]
- % … 5 μM (NF…, U… cells) (NF- B Pathway): 62.9%

Molecule: CC(C)(C)C1=NN(c2ccc(C(=O)O)cc2)C(c2ccc(O)cc2)C1 (centres unmarked) [1g]
- % … 5 μM (NF…, U… cells) (NF- B Pathway): 40.7%

Molecule: CC(C)(C)C1=NN(c2cccc(Cl)c2)C(c2ccc(O)cc2)C1 (centres unmarked) [1h]
- % … 5 μM (NF…, U… cells) (NF- B Pathway): 64.6%
- IC50 (Recombinant PKC): 3.2 µM
- % … 62.5 μM (cell…) (Recombinant PKC): 96.8%

Molecule: CC(C)(C)C1=NN(c2cccc(C(F)(F)F)c2)C(c2ccc(O)cc2)C1 (centres unmarked) [1j]
- % … 62.5 μM (cell…) (Recombinant PKC): 96.1%

Molecule: Cc1cccc(N2N=C(C(C)(C)C)CC2c2ccc(O)cc2)c1 (centres unmarked) [1k]
- % … 5 μM (NF…, U… cells) (NF- B Pathway): 71.7%
- % … 62.5 μM (cell…) (Recombinant PKC): 91.7%

Molecule: CC(C)(C)C1=NN(c2ccc(Cl)cc2Cl)C(c2ccc(O)cc2)C1 (centres unmarked) [1n]
- % … 62.5 μM (cell…) (Recombinant PKC): 71.0%

Molecule: Cc1ccc(N2N=C(C(C)(C)C)CC2c2ccc(O)cc2)c(C)c1 (centres unmarked) [1p]
- % … 5 μM (NF…, U… cells) (NF- B Pathway): 41.5%
- % … 62.5 μM (cell…) (Recombinant PKC): 59.9%

Molecule: CC(C)(C)c1ccc(-n2c(-c3ccncc3)nc3cccnc32)cc1 [3a]
- IC50 (AKT1): > 300 µM

Molecule: COc1ccccc1Cn1c(-c2cccnc2N)nc2cccnc21 [3c]
- IC50 (AKT1): 38 µM

Molecule: NCc1ccc(-n2c(-c3cccnc3)nc3cccnc32)cc1 [5b]
- IC50 (AKT1): 8.8 µM

Molecule: O=C(O)/C=C(/CCc1ccc(Cl)c(Cl)c1)c1ccccc1 [7Z]
- EC50 (PDK1 [1]): 2.8 µM
- …H… (PDK1 [2]; the 35th table c6): -3.71 kcal/mol
- T… (PDK1 [2]): 2.80 kcal/mol
- …G (PDK1 [2]): -6.56 kcal/mol
- …H… (PDK1 [2]; the 35th table c9): 56.6%

Molecule: O=C(O)/C=C(/CCc1ccc(Cl)cc1Cl)c1ccccc1 [8Z]
- EC50 (PDK1 [1]): 4.7 µM
- …H… (PDK1 [2]; the 35th table c6): -2.08 kcal/mol
- T… (PDK1 [2]): 4.93 kcal/mol
- …G (PDK1 [2]): -7.07 kcal/mol
- …H… (PDK1 [2]; the 35th table c9): 29.5%

Molecule: CC(=O)NCc1ccc(-n2c(-c3cccnc3N)nc3cccnc32)cc1 [8d]
- IC50 (AKT1): 0.81 µM

Molecule: Nc1ncccc1-c1nc2cccnc2n1-c1cccc(CNC(=O)c2ccccc2)c1 [8g]
- IC50 (AKT1): 13 µM

Molecule: Nc1ncccc1-c1nc2cccnc2n1-c1ccc(CNCc2ccccc2)cc1 [8h]
- IC50 (AKT1): 0.26 µM

Molecule: O=C(O)/C=C(/CCc1ccc2ccccc2c1)c1ccccc1 [12Z]
- EC50 (PDK1 [1]): 8 µM
- T… (PDK1 [2]): 1.96 kcal/mol
- …G (PDK1 [2]): -6.87 kcal/mol
- …H… (PDK1 [2]; the 35th table c9): 58.3%

Molecule: Nc1ncccc1-c1nc2cc(C3CCCC3)cnc2n1-c1ccc(CNC(=O)c2ccccc2)cc1 [12d]
- IC50 (Akt): > 100000 nM

Molecule: Nc1ncccc1-c1nc2cc(-c3cccnc3)cnc2n1-c1ccc(CNC(=O)c2cccc(F)c2)cc1 [12g]
- IC50 (Akt): 400 nM

Molecule: Cc1ccc2nc(NCCN)c3ncc(C)n3c2c1 [BMS-345541]
- NF-κB dependent transcription in mice [3]: block NF-κB dependent transcription

Molecule: Cn1cnc2c(F)c(Nc3ccc(Br)cc3F)c(C(=O)NOCCO)cc21 [Binimetinib]
- pIC50 (MEK1): 7.9
- pIC50 (MEK2): 7.9

Molecule: O=C(Nc1nccs1)C(c1cc(F)ccc1O)N1Cc2ccccc2C1=O (centres unmarked) [EAI045]
- inhibition of any other kinases in screening panels (other kinases): ≤ 20%

Molecule: Nc1ccc(/C=C/C(=O)NCc2cc3cc(-c4ccc(C(=O)N5CCC(F)(F)CC5)cc4)cc(-c4ccc(F)cc4)c3o2)cn1 [KPT-9274]
- Molt-4 xenografts [4]: induces shrinkage

Molecule: O=S(=O)(Nc1nc2ccc(Cl)cc2s1)c1cc2ccccc2s1 [RS2]
- Kd (PDK1 [5]): 9 µM

Molecule: CO[C@H]1C[C@@H]2CC[C@@H](C)[C@@](O)(O2)C(=O)C(=O)N2CCCC[C@H]2C(=O)O[C@H]([C@H](C)C[C@@H]2CC[C@@H](O)[C@H](OC)C2)CC(=O)[C@H](C)/C=C(\C)[C@@H](O)[C@@H](OC)C(=O)[C@H](C)C[C@H](C)/C=C/C=C/C=C/1C [Sirolimus]
- MERS-COV infection of Huh7 cells (MERS-COV): inhibits MERS-COV infection

Molecule: CC(=O)Nc1cccc(-n2c(=O)n(C3CC3)c(=O)c3c(Nc4ccc(I)cc4F)n(C)c(=O)c(C)c32)c1 [Trametinib]
- Absorption/distribution of an oral dose of trametinib tablet: 72%

Molecule: O=C(O)c1cc(-c2cccc(C(F)(F)F)c2)nc2ccccc12 [compound 34]
- IC50 (C26): 0.33 nM
- Sol (pH 6.5) [6]: 190 μg/mL
- IC50 (Aurora A): 26.5 µM
- Ki (Aurora A; read-out: Calculated K…): 507 µM

Molecule: O=C1NC(=O)[C@@H](c2cn3c4c(cccc24)CCC3)[C@@H]1c1c[nH]c2ccccc12 [tivantinib]
- growth of carcinoma xenografts [7]: inhibition of growth

Molecule: Skepinone-B
- residence times (p38α MAPK): 150 s
